These results are taken from patent US20220257593A1, “CARABACHOL-BROMONIDINE FORMULATION TO ENHANCE ANTI-PRESBYOPIA EFFECTS” (Visus Therapeutics, Inc., priority 2019, published 2022).

The subject of series [1] is emmetropic and presbyopic subjects, non-dominant eye. Briefly: Examples 7 and 13 crossover trial: pupil size (Colvard infrared pupilometer). Type of series: in vivo, human. The conditions noted are these: for PS (mean pupil size): mean ± SD, ten subjects, pre-treatment 4.3 ± 0.5. On the procedure:
(§1) A prospective, double-masked, randomized, controlled clinical trial was conducted.
(§2) The 3% carbachol drops included 50 ppm of benzalkonium chloride.

For series [2] the test system is unchanged. Kind of series: Examples 7 and 13 crossover trial: near visual acuity, combined vs separate 3% carbachol and 0.2% brimonidine, carbachol alone, brimonidine alone. The conditions noted are these: for NVA (mean near visual acuity): mean ± SD, ten subjects, pre-treatment 8.6 ± 1.5. Type of series: in vivo, human. The protocol:
Participants were volunteers selected at random.
as §1
Participants were randomly selected volunteers.
as §2

Series [3] concerns presbyopic subjects. The conditions noted are these: subjects receiving brimonidine drops.
Series [4] relates to emmetropic, myopic and hyperopic presbyopes.
Series [5] deals with presbyopic subjects, non-dominant eye. Kind of series: Example 8 dose range studies of carbachol and pilocarpine with and without brimonidine: near visual acuity (LogMAR) and pupil diameter. Type of series: in vivo, human. The note with it: for change in LogMAR VA, pilocarpine vs carbachol, each plus 0.2% brimonidine: FIGS. 12 and 13. On the procedure: Dose range studies were performed for carbachol and pilocarpine. […] Pilocarpine and carbachol were also compared to each other, with and without brimonidine.

Series [6] concerns presbyopic subjects. Kind of series: Example 8 dose range studies: tolerability, adverse symptoms and satisfaction survey. From the text: Both Groups 1 and 2 received the same pre- and post-treatment work-up and measurements: Age, gender, initial pupil size, and near vision acuity (NVA) were documented.
The survey asked the patients whether they would use the drops again.

Series [7] in a line: Example 8: stability of pilocarpine at neutral pH. The format is physicochemical. The conditions noted are these: needs about pH 5.
For series [8] the following is noted: FDA product insert for isoptocarpine; cited from earlier work.

“And” between values parts separate entries of the source, which are not always exact repeats. Equal values may be shown once. “Also recorded” adds a separate entry of the source. Read-outs that look alike come from different tables or passages of the source. A value given as a limit tells only on which side of the number the result lay.

With `C[N+](C)(C)CCOC(N)=O` [3% carbachol alone, carbachol], the “PS (mean pupil size)” value in series [1] (1-h post-treatment) was 2.8 ± 0.3 mm; in series [1] (2-h post-treatment) it was 3 ± 0.3 mm; in series [1] (4-h post-treatment) it was 3.5 ± 0.3 mm; in series [1] (8-h post-treatment), 4 ± 0.3 mm. Further, the “mean pupil size (PS)” value is 2.8±0.3 mm in series [1] (1 h post-treatment, before treatment 4.3±0.5 mm); 3±0.3 mm in series [1] (2 h post-treatment); 3.5±0.3 mm in series [1] (4 h post-treatment); 4±0.3 mm in series [1] (8 h post-treatment). In addition, the “hours in which mean pupil size reached the target pupil size of <2.5 mm” value in series [1] (emmetropic presbyopes, FIG. 24) is listed as “never achieved the target pupil size during hours 1-8”. The “NVA (mean near visual acuity)” value in series [2] (1-h post-treatment) is 5.5 ± 1 J; in series [2] (2-h post-treatment), 5.9 ± 0.8 J; in series [2] (4-h post-treatment), 7 ± 1.2 J; in series [2] (8-h post-treatment), 7.5 ± 1 J. The “mean near visual acuity (NVA)” value is 5.5 ± 1 J in series [2] (1 h post-treatment, before treatment J 8.6±1.5, 10 subjects crossover); 5.9 ± 0.8 J in series [2] (2 h post-treatment); 7 ± 1.2 J in series [2] (4 h post-treatment); 7.5 ± 1 J in series [2] (8 h post-treatment). Moreover, the “hours in which mean near visual acuity (NVA) was ≥20/40” value in series [2] (emmetropic presbyopes, FIG. 25) is reported as “never achieved an NVA of ≥20/40”.

Consider `Brc1c(NC2=NCCN2)ccc2nccnc12` [Brimonidine 0.2%, brimonidine], for which the “PS (mean pupil size)” value in series [1] (1-h post-treatment) was 3.95 ± 0.5 mm; in series [1] (2-h post-treatment), 4.2 ± 0.4 mm; in series [1] (4-h post-treatment), 4.3 ± 0.5 mm; in series [1] (8-h post-treatment), 4.3 ± 0.5 mm. Further, the “effect on pupil size or NVA” value in series [1] (50 ppm benzalkonium chloride) is listed as “virtually no effect”. Besides, the “difference in mean PS before treatment and at any time point after treatment” value in series [1] (P >0.05) is recorded as “no statistically significant difference”. Besides, the miotic effect entry in series [1] (first hour after instillation, light luminance conditions, not significant (P >0.05)) is “mild miotic effect”. For the same compound, the “mild burning sensation, number of subjects” value with presbyopic subjects [3] was 10 subjects. For the same compound, the “NVA (mean near visual acuity)” value in series [2] (1-h post-treatment) is 7.7 ± 1.3 J; in series [2] (2-h post-treatment) it was 8.2 ± 1.3 J; in series [2] (4-h post-treatment), 8.5 ± 1.4 J; in series [2] (8-h post-treatment), 8.6 ± 1.5 J. The “difference in mean NVA before treatment and at any time point after treatment” value in series [2] (P >0.05) is “no statistically significant difference”; in series [4] (Group 1 emmetropic presbyopes), “No statistically significant difference in mean NVA”; in series [4] (Group 2 myopic presbyopes), “No statistically significant difference in mean NVA”; in series [4] (Group 3 hyperopic presbyopes), “No statistically significant difference in mean NVA”. Besides, in series [2] (over eight hours), the “mean change / improvement in near visual acuity compared among combination, separate drops, carbachol alone, brimonidine alone” value was “the least”. The “synergy with carbachol and pilocarpine” value in series [5] (0.2% brimonidine) is “synergistic with both carbachol and pilocarpine”.

For the compound `CC[C@@H]1C(=O)OC[C@@H]1Cc1cncn1C` [Pilo Alone], in series [5] (Pilo 0.5%, individual patients), the “Pilo Alone 1 hr nVA” value was 3 J and 6 J and 5 J; the “Pilo Alone 1 hr pupil” value is 3.8 and 3 (2×); the “Pilo Alone 2 hrs nVA” value was 5 J (2×) and 3 J (2×); the “Pilo Alone 2 hrs pupil” value was 3 and 4 and 2.5 and 3.3. For the same compound, in series [5] (Pilo 0.5%, individual patients), the “Pilo Alone 4 hrs nVA” value was 5 J (3×) and 3 J; the “Pilo Alone 4 hrs pupil” value was 3.3 and 4 and 3 and 4.2. In addition, in series [5] (Pilo 1%, individual patients), the “Pilo Alone 1 hr nVA” value is 3 J (2×) and 2 J and 8 J; the “Pilo Alone 1 hr pupil” value was 2.5 (2×) and 1.5 and 3; the “Pilo Alone 2 hrs nVA” value was 3 J and 2 J (2×) and 8 J; the “Pilo Alone 2 hrs pupil” value was 3 (2×) and 1.5 and 2.5. Further, in series [5] (Pilo 1%, individual patients), the “Pilo Alone 4 hrs nVA” value was 5 J (2×) and 3 J and 10 J; the “Pilo Alone 4 hrs pupil” value was 4 (2×) and 2.5 and 3. Further, in series [5] (Pilo .05%, patient 5), the “Pilo Alone 1 hr nVA” value was 3 J and the “Pilo Alone 1 hr pupil” value turned out to be 2.5. Also, in series [5] (Pilo […], individual patients), the “Pilo Alone 4 hrs pupil” value turned out to be 4.

With `C[N+](C)(C)CCOC(N)=O` [carbachol, reference compound], the “dose response for tolerability” value with presbyopic subjects [6] (carbachol […], […], 3% plus brimonidine, seven days, FIG. 15) was “An inverse dose response”. Further, the “change in LogMAR VA, pilocarpine vs carbachol, each plus 0.2% brimonidine” value in series [5] is “favored carbachol for hours 8 and 10”. In series [5] (in vivo), this compound returned a duration of effect of 8 h.

Take `CC[C@@H]1C(=O)OC[C@@H]1Cc1cncn1C` [pilocarpine, reference compound]: the burning result with presbyopic subjects [6] (in vivo) is “burned”. For the same compound, in series [7], the “stability at neutral pH” value is on record as “unstable at neutral pH”. Besides, the brow ache rate in series [8] is over 5%. Also, the “change in LogMAR VA, pilocarpine vs carbachol, each plus 0.2% brimonidine” value in series [5] was “favored pilocarpine for hours 1 and 2”. In series [5] (compared with carbachol), the “onset and duration of effect” value is reported as “more immediate effect; also recorded: shorter duration”.
